Converted amounts (≈) assume the structure as drawn. Like-named read-outs stand apart in the source and are kept apart here.
Tests used:
[1] = test system: E. coli ATCC28922; assay: MIC determination by microplate dilution, E. coli human strain; type: cell-based, Escherichia coli; settings: Escherichia coli, ATCC28922, Gram-negative, Mueller-Hinton medium, 24 h, 37° C.
Protocol: (§1) 1) Preparation of the Preculture
(§2) A negative control (2 mL of sterile culture medium)
(§3) A positive control (1940 μL of culture medium+40 μL of DMSO+20 μL of bacterial suspension) from a thawed biological strain (the biological strains are stored at −80° C. in glycerol).
(§4) The tubes were incubated at 37° C. for 24 hours at 100 rpm.
(§5) The microorganisms were handled under a type L2 laboratory fume cupboard and, before any handling, a UV cycle was programmed and only sterile material was used. […] The chemical compounds to be tested were prepared in a DMSO/methanol mixture (50/50) at a concentration of 5 mg/mL.
(§6) 2) Preparation of the Microplate for the Determination of the Minimum Inhibitory Concentration (MIC)
(§7) After 24 hours of incubation, a measurement of the optical density was taken using a spectrophotometer at 600 nm, collecting 100 μL of the bacterial suspension diluted in 900 μL of the sterile culture medium. This test required the use of a 96-well plate and the required volume of the microbial suspension to be seeded was calculated for an OD corresponding to a value equal to 0.01 in each well. In this plate, the first line corresponded to the negative control (195 μL of sterile culture medium in each well), the second line to the positive control (seeded culture medium supplemented with 2% of DMSO), the third line was loaded twice with bacterial suspension, 8 μL of test product were placed in each well. Thereafter, a 0.5 cascade dilution was performed from this line.
(§8) The first column served as inhibition control. A sterile filter was then placed on the microplate, allowing the passage of gases but not of contaminants. The microplate was incubated at 37° C. under a humid atmosphere for 24 hours.
(§9) NB: The medium used is Mueller-Hinton (MH) medium for bacteria. All the tests were performed in duplicate.
(§10) 4) Reading of the Results
(§11) After incubation, the filter was replaced with a transparent film, and an OD reading was then taken in an iEMS plate spectrophotometer at 620 nm. Calculation of the minimum inhibitory concentration (MIC) was performed.

[2] = test system: S. aureus ATCC25923; assay: MIC determination by microplate dilution, S. aureus human strain; type: cell-based, Staphylococcus aureus; settings: Staphylococcus aureus, ATCC25923, Gram-positive, Mueller-Hinton medium, 24 h, 37° C.
Protocol: as §1, §2, §3, §4, §5, §6, §7, §8, §9, §10, §11

[3] = test system: S. intermedius (1051997); assay: MIC determination by microplate dilution, S. intermedius animal strain; type: cell-based, Staphylococcus intermedius; settings: Staphylococcus intermedius, Gram-positive, Mueller-Hinton medium, 24 h, 37° C.
Protocol: as §1, §2, §3, §4, §5, §6, §7, §8, §9, §10, §11

[4] = test system: S. aureus (340); assay: MIC determination by microplate dilution, S. aureus animal strain; type: cell-based, Staphylococcus aureus; settings: Staphylococcus aureus, Gram-positive, Mueller-Hinton medium, 24 h, 37° C.
Protocol: as §1, §2, §3, §4, §5, §6, §7, §8, §9, §10, §11

[5] = test system: P. aeruginosa (1051575); assay: MIC determination by microplate dilution, P. aeruginosa animal strain; type: cell-based, Pseudomonas aeruginosa; settings: Pseudomonas aeruginosa, Gram-negative, Mueller-Hinton medium, 24 h, 37° C.
Protocol: as §1, §2, §3, §4, §5, §6, §7, §8, §9, §10, §11

[6] = test system: P. aeruginosa (1051575); assay: Potentiation of the doxycycline activity at 2 μg/mL; type: cell-based, Pseudomonas aeruginosa; settings: in combination with doxycycline 2 μg/mL; 24 h, 37°
[7] = test system: E. coli (1956); assay: MIC determination by microplate dilution, E. coli animal strain; type: cell-based, Escherichia coli; settings: Escherichia coli, Gram-negative, Mueller-Hinton medium, 24 h, 37° C.
Protocol: as §1, §2, §3, §4, §5, §6, §7, §8, §9, §10, §11

[8] = test system: CHO-K1 cells; assay: WST1 cytotoxicity test on CHO-K1 cells; type: cell-based, Chinese hamster; settings: Cricetulus griseus, read-out: IC50 (μg/mL) CHO
Protocol: Test WST1 was used to measure the cytotoxic activity of the products. This is a colorimetric test which makes it possible to measure the viability and the degree of cell proliferation. It is based on cleavage of the colorless tetrazolium salts WST-1 (4-[3-(4-iodophenyl)-2-(4-nitrophenyl)-2H-5-tetrazolio]-1,3-benzene disulfonate) with mitochondrial dehydrogenases to the yellow-colored formazan derivative, which may be quantified by spectrophotometry at 420-480 nm.
The WST1 test was performed on Chinese hamster ovary cells. The CHO-K1 cells (ATCC, USA) are kept in culture on McCoy's 5A medium supplemented with 10% fetal calf serum, 2 mM of L-glutamine and a mixture of penicillin-streptomycin (100 U/ml: 10 μg/mL). The culture is incubated at 37° C. under an atmosphere enriched in CO2 (5%), and subcultured every two days.
The cells are transferred into 96-well plates (25 000 cells/mL) in whole McCoy's 5A medium, and maintained for 24 hours at 37° C. under a humid atmosphere enriched in CO2 (5%). Increasing concentrations of test products are added to the wells in double tests and 8 growth controls containing the cells in the medium alone are included in each series of tests. After 24 hours at 37° C. (5% CO2), the culture medium is removed, the cells are rinsed in phosphate buffer (PBS) and 50 μL of PBS containing 10% of reagent WST1 are added to each well. After 20 minutes of incubation at 37° C., the results are read by spectrophotometry at 450 nm.
The results are expressed in dose-response relationships, modeled by nonlinear regression analysis using the TableCurve software. The 50% inhibitory concentration (IC50) represents the concentration of product that is capable of reducing the cell viability by 50%.

[9] = test system: E. faecalis ATCC29212; assay: MIC determination by microplate dilution, E. faecalis human strain; type: cell-based, Enterococcus faecalis; settings: Enterococcus faecalis, ATCC29212, Gram-positive, Mueller-Hinton medium, 24 h, 37° C.
Protocol: as §1, §2, §3, §4, §5, §6, §7, §8, §9, §10, §11

[10] = test system: P. aeruginosa ATCC27853; assay: MIC determination by microplate dilution, P. aeruginosa human strain; type: cell-based, Pseudomonas aeruginosa; settings: Pseudomonas aeruginosa, ATCC27853, Gram-negative, Mueller-Hinton medium, 24 h, 37° C.
Protocol: as §1, §2, §3, §4, §5, §6, §7, §8, §9, §10, §11

[11] = Table III, WST1, CHO-K1 cells, 24 h, concentration reducing cell viability by 50%

CC(C)OC(=O)CC[C@@H](C)[C@H]1CCC2C3CCC4C[C@@H](NCCCNCCCNCCCN)CC[C@]4(C)C3CC[C@@]21C (stereo partly drawn) [Compound (15), isopropyl 3β-norsperminolithocholate]
MIC [1]: 14 µg/mL (≈ 23.8 µM)
MIC [2]: 7 µg/mL (≈ 11.9 µM)
MIC [3]: 1 µg/mL (≈ 1.7 µM)
MIC [4]: 7 µg/mL (≈ 11.9 µM)
MIC [5]: 2 µg/mL (≈ 3.4 µM)
MIC - P. aeruginosa (1051575): content of compound of formula (I) to restore the doxycycline activity (at 2 μg/mL) [6]: 2 µg/mL
MIC [7]: 7 µg/mL (≈ 11.9 µM)
IC50 ([8]; CHO-K1, 24 h): 15 µg/mL (≈ 25.5 µM)

CC(C)OC(=O)CC[C@@H](C)[C@H]1CCC2C3C(C[C@H](O)[C@@]21C)[C@@]1(C)CC[C@H](NCCN(CCN)CCN)CC1C[C@H]3O (stereo partly drawn) [(35), isopropyl 3β-(tris(2-aminoethyl)amine)cholate]
MIC [1]: 28 µg/mL (≈ 48.4 µM)
MIC [2]: 28 µg/mL (≈ 48.4 µM)
MIC [3]: 14 µg/mL (≈ 24.2 µM)
MIC [9]: 28 µg/mL (≈ 48.4 µM)
MIC [10]: 56 µg/mL (≈ 96.7 µM)
MIC [5]: 56 µg/mL (≈ 96.7 µM)
MIC - P. aeruginosa (1051575): content of compound of formula (I) to restore the doxycycline activity (at 2 μg/mL) [6]: 7 µg/mL
MIC [7]: 56 µg/mL (≈ 96.7 µM)

COC(=O)CC[C@@H](C)[C@H]1CCC2C3C(C[C@H](O)[C@@]21C)[C@@]1(C)CC[C@H](NCCCN(C)CCCN)C[C@H]1C[C@H]3O (stereo partly drawn) [(33), methyl 3β-(bis(3-aminopropyl)methylamine)cholate]
MIC [1]: 27 µg/mL (≈ 49.1 µM)
MIC [2]: 14 µg/mL (≈ 25.5 µM)
MIC [3]: 14 µg/mL (≈ 25.5 µM)
MIC [4]: 14 µg/mL (≈ 25.5 µM)
MIC [9]: 14 µg/mL (≈ 25.5 µM)
MIC [10]: 27 µg/mL (≈ 49.1 µM)
MIC [5]: 50 µg/mL (≈ 90.9 µM)
MIC [7]: 50 µg/mL (≈ 90.9 µM)
IC50 [8, 11]: 126 µg/mL (≈ 229 µM)

COC(=O)CC[C@@H](C)[C@H]1CCC2C3CCC4C[C@@H](NCCCN(C)CCCN)CC[C@]4(C)C3CC[C@@]21C (stereo partly drawn) [(45), methyl 3β-(bis(3-aminopropyl)methylamine)lithocholate]
MIC [1]: 26 µg/mL (≈ 50.2 µM)
MIC [2]: 12 µg/mL (≈ 23.2 µM)
MIC [3]: 3 µg/mL (≈ 5.79 µM)
MIC [4]: 6 µg/mL (≈ 11.6 µM)
MIC [9]: 12 µg/mL (≈ 23.2 µM)
MIC [10]: 26 µg/mL (≈ 50.2 µM)
MIC [5]: 26 µg/mL (≈ 50.2 µM)
MIC [7]: 6 µg/mL (≈ 11.6 µM)
IC50 [8, 11]: 46 µg/mL (≈ 88.8 µM)

COC(=O)CC[C@@H](C)[C@H]1CCC2C3C(CC[C@@]21C)[C@@]1(C)CC[C@H](NCCCNCCCNCCCN)CC1C[C@H]3O (stereo partly drawn) [Compound (8), methyl 3β-norsperminochenodeoxycholate]
MIC [1]: 15 µg/mL (≈ 26 µM)
MIC [2]: 4 µg/mL (≈ 6.93 µM)
MIC [3]: 2 µg/mL (≈ 3.47 µM)
MIC [4]: 4 µg/mL (≈ 6.93 µM)
MIC [5]: 7 µg/mL (≈ 12.1 µM)
MIC - P. aeruginosa (1051575): content of compound of formula (I) to restore the doxycycline activity (at 2 μg/mL) [6]: 1 µg/mL
MIC [7]: 29 µg/mL (≈ 50.3 µM)
IC50 ([8]; CHO-K1, 24 h): 22 µg/mL (≈ 38.1 µM)

COC(=O)CC[C@@H](C)[C@H]1CCC2C3CCC4C[C@@H](NCCCN(CCCN)CCCN)CC[C@]4(C)C3CC[C@@]21C (stereo partly drawn) [(46), methyl 3β-(tris(3-aminopropyl)amine)lithocholate]
MIC [1]: 56 µg/mL (≈ 99.8 µM)
MIC [2]: 14 µg/mL (≈ 25 µM)
MIC [3]: 4 µg/mL (≈ 7.13 µM)
MIC [4]: 7 µg/mL (≈ 12.5 µM)
MIC [9]: 14 µg/mL (≈ 25 µM)
MIC [10]: 28 µg/mL (≈ 49.9 µM)
MIC [5]: 28 µg/mL (≈ 49.9 µM)
MIC [7]: 28 µg/mL (≈ 49.9 µM)
IC50 [8, 11]: 30 µg/mL (≈ 53.5 µM)

COC(=O)CC[C@@H](C)[C@H]1CCC2C3C(CC[C@@]21C)[C@@]1(C)CC[C@H](NCCCN(CCCN)CCCN)CC1C[C@@H]3O (stereo partly drawn) [(52), methyl 3β-(tris(3-aminopropyl)amine)ursodeoxycholate]
MIC [1]: 30 µg/mL (≈ 52 µM)
MIC [2]: 14 µg/mL (≈ 24.3 µM)
MIC [4]: 14 µg/mL (≈ 24.3 µM)
MIC [9]: 30 µg/mL (≈ 52 µM)
MIC [10]: 14 µg/mL (≈ 24.3 µM)
MIC [5]: 30 µg/mL (≈ 52 µM)
MIC - P. aeruginosa (1051575): content of compound of formula (I) to restore the doxycycline activity (at 2 μg/mL) [6]: 7 µg/mL
MIC [7]: 30 µg/mL (≈ 52 µM)
